Reference: ChEMBL document CHEMBL1201862, “PubChem BioAssay data set” (2004)
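Interpolation was linear, between the two tested concentrations surrounding the appropriate level; five concentrations were tested over 48 hours in 96-well plates. The concentration for 50% growth inhibition is given as GI50.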 Activity calls are given as the source filed them. Cut-off read from the data, not from the text of the source: active = GI50 up to about 1.1 µM and inactive = higher.

Tests used:
Test in all cases: inhibition of tumour cell growth, NCI panel, 48 h
A498 = tested on: A498
CCRF-CEM = tested on: CCRF-CEM
COLO 205 = tested on: COLO 205
EKVX = tested on: EKVX
HCC 2998 = tested on: HCC 2998
HCT-116 = tested on: HCT-116
HL-60 = tested on: HL-60
IGROV-1 = tested on: IGROV-1
KM-20L2 = tested on: KM-20L2
NCI-H226 = tested on: NCI-H226
OVCAR-3 = tested on: OVCAR-3
OVCAR-4 = tested on: OVCAR-4
SF-295 = tested on: SF-295
SK-MEL-5 = tested on: SK-MEL-5
SNB-75 = tested on: SNB-75
U-251 = tested on: U-251
UACC-257 = tested on: UACC-257
SK-MEL-2 = tested on: SK-MEL-2

Measured: GI50

Cc1ccc(-c2cc(-c3ccco3)c(C#N)c(O)n2)cc1
inactive: A498 > 100 µM | CCRF-CEM > 100 µM | COLO 205 > 100 µM | EKVX > 100 µM | HCC 2998 > 100 µM | HCT-116 > 100 µM | HL-60 > 100 µM | IGROV-1 > 100 µM | KM-20L2 > 100 µM | NCI-H226 > 100 µM | OVCAR-3 > 100 µM | OVCAR-4 45.1 µM | SF-295 > 100 µM | SK-MEL-5 > 100 µM | SNB-75 18.7 µM | U-251 82.8 µM | UACC-257 > 100 µM

CC(C)c1cccc(C(C)C)c1/N=C(/N)C#N
inactive: A498 > 100 µM | CCRF-CEM 30.5 µM | COLO 205 40.6 µM | EKVX > 100 µM | HCC 2998 > 100 µM | HCT-116 > 44.6 µM | HL-60 26.7 µM | IGROV-1 > 100 µM | KM-20L2 > 100 µM | NCI-H226 > 100 µM | OVCAR-3 > 100 µM | OVCAR-4 > 100 µM | SF-295 > 100 µM | SK-MEL-2 > 90.6 µM | SK-MEL-5 > 93.5 µM | SNB-75 > 100 µM | U-251 34 µM | UACC-257 > 46.6 µM

N#CCCn1c(S)nnc1CCC(=O)Nc1ccc(Cl)cc1Cl
inactive: A498 > 100 µM | CCRF-CEM 52.6 µM | COLO 205 > 100 µM | HCC 2998 > 100 µM | HCT-116 > 100 µM | HL-60 94.2 µM | IGROV-1 > 100 µM | KM-20L2 > 100 µM | NCI-H226 > 100 µM | OVCAR-3 > 100 µM | OVCAR-4 > 100 µM | SF-295 > 100 µM | SK-MEL-2 > 100 µM | SK-MEL-5 > 100 µM | SNB-75 > 100 µM | U-251 > 100 µM | UACC-257 > 100 µM

CCOC(=O)c1sc2c(sc(=O)n2-c2ccccc2)c1O
inactive: A498 > 100 µM | CCRF-CEM 45 µM | COLO 205 45.3 µM | EKVX > 100 µM | HCC 2998 > 100 µM | HCT-116 > 100 µM | HL-60 > 100 µM | IGROV-1 > 100 µM | KM-20L2 > 100 µM | NCI-H226 > 100 µM | OVCAR-3 88.7 µM | OVCAR-4 > 100 µM | SF-295 > 100 µM | SK-MEL-2 > 100 µM | SK-MEL-5 > 100 µM | SNB-75 > 100 µM | U-251 > 100 µM | UACC-257 > 100 µM

O=C1/C(=C(\Nc2ccccc2)c2ccccc2)C=NN1c1ccccc1
inactive: A498 > 100 µM | CCRF-CEM > 100 µM | COLO 205 > 100 µM | EKVX > 100 µM | HCC 2998 > 100 µM | HL-60 17.7 µM | IGROV-1 > 100 µM | KM-20L2 > 100 µM | OVCAR-4 76.9 µM | SF-295 > 100 µM | SK-MEL-2 > 100 µM | SK-MEL-5 26.7 µM | SNB-75 > 100 µM | U-251 > 100 µM | UACC-257 > 100 µM

O=c1oc(=O)c2oc3ccccc3oc1=2
inactive: A498 > 100 µM | CCRF-CEM > 100 µM | COLO 205 > 100 µM | EKVX > 100 µM | HCC 2998 > 100 µM | HCT-116 > 100 µM | HL-60 > 100 µM | IGROV-1 > 100 µM | KM-20L2 > 100 µM | NCI-H226 > 100 µM | OVCAR-3 > 100 µM | OVCAR-4 > 100 µM | SF-295 > 100 µM | SK-MEL-2 > 100 µM | SNB-75 > 100 µM | U-251 > 100 µM | UACC-257 > 100 µM

COC(=O)C(=O)C(C(=O)C=C(C)C)C(=O)C(=O)Nc1nc2ccc([N+](=O)[O-])cc2s1 (stereo not drawn)
inactive: A498 30.5 µM | CCRF-CEM 38.7 µM | COLO 205 > 100 µM | EKVX 33.9 µM | HCC 2998 46.6 µM | HCT-116 50 µM | HL-60 35.4 µM | IGROV-1 24.9 µM | KM-20L2 > 100 µM | NCI-H226 46.1 µM | OVCAR-3 44.6 µM | OVCAR-4 52.5 µM | SK-MEL-2 49.5 µM | SK-MEL-5 35.7 µM | SNB-75 21.4 µM | U-251 49.8 µM | UACC-257 79.8 µM

OCC(O)COc1c(Cl)ccc(Cl)c1Cl (stereo not drawn)
inactive: A498 > 100 µM | CCRF-CEM > 100 µM | COLO 205 > 100 µM | EKVX > 100 µM | HCC 2998 > 100 µM | HCT-116 > 100 µM | HL-60 > 100 µM | IGROV-1 > 100 µM | KM-20L2 > 100 µM | NCI-H226 > 100 µM | OVCAR-3 > 100 µM | OVCAR-4 > 100 µM | SF-295 > 100 µM | SK-MEL-2 > 100 µM | SK-MEL-5 > 100 µM | SNB-75 > 100 µM | U-251 > 100 µM | UACC-257 > 100 µM

O=C(CCN1CCC(CCO)CC1)Nc1ccc2c(c1)C(=O)c1ccc(NC(=O)CCN3CCC(CCO)CC3)cc1C2=O
inactive: A498 19.9 µM | CCRF-CEM 4.22 µM | COLO 205 10.7 µM | EKVX 32.5 µM | HCC 2998 14.4 µM | HCT-116 9.46 µM | HL-60 24.6 µM | IGROV-1 24.7 µM | KM-20L2 27.9 µM | NCI-H226 4.86 µM | OVCAR-3 5.53 µM | OVCAR-4 12.5 µM | SF-295 > 100 µM | SK-MEL-2 3.76 µM | SK-MEL-5 19.4 µM | SNB-75 20.2 µM | U-251 9.1 µM | UACC-257 19.5 µM

CC(=O)Nc1ccc(/C=C/C(=O)c2sc(C(N)=S)nc2C)cc1
inactive: A498 > 100 µM | CCRF-CEM 81.1 µM | COLO 205 > 100 µM | EKVX > 100 µM | HCC 2998 > 100 µM | HL-60 > 100 µM | IGROV-1 > 100 µM | KM-20L2 > 100 µM | NCI-H226 > 100 µM | OVCAR-3 > 100 µM | SF-295 > 100 µM | SK-MEL-2 > 100 µM | SK-MEL-5 > 100 µM | SNB-75 > 100 µM | U-251 > 100 µM | UACC-257 > 100 µM

CN1CCC23c4c5ccc(O)c4OC2C(=NN=C2CCC4(O)C6Cc7ccc(O)c8c7C4(CCN6C)C2O8)CCC3(O)C1C5 (stereo not drawn)
inactive: A498 > 100 µM | CCRF-CEM > 100 µM | COLO 205 > 100 µM | EKVX > 100 µM | HCC 2998 > 100 µM | HL-60 > 100 µM | IGROV-1 > 100 µM | KM-20L2 > 100 µM | NCI-H226 > 100 µM | OVCAR-3 > 100 µM | OVCAR-4 > 100 µM | SF-295 > 100 µM | SK-MEL-2 > 100 µM | SK-MEL-5 > 100 µM | SNB-75 > 100 µM | U-251 > 100 µM | UACC-257 > 100 µM
